Data reported in PubChem BioAssay AID256 (DTP/NCI, 2004).
Values joined by “and” are separate entries in the source; they are usually repeats but may differ in a detail not shown here. Identical values can stand only once. Toxic doses and inconclusive results are not listed. The calls were made as follows: active = survival T/C of 150% or more; inactive = T/C below 125% in these data.

Tested on: CD2F1 mice, L1210 leukemia ip, survival T/C
Assay: NCI In Vivo Anticancer Drug Screen. Data for tumor model L1210 Leukemia (intraperitoneal) in CD2F1 (CDF1) mice
Settings: higher = longer survival
In short: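 Activity against a transplanted murine tumor was judged by comparing the compound group with a vehicle group. The outcome in the treated animals was divided by that in the controls.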

[1] = endpoint: mean survival time, dose: 100.0 mg/kg/injection, schedule: Q01DX009 (ip), vehicle: saline with Tween-80
[2] = endpoint: mean survival time, dose: 100.0 mg/kg/injection, schedule: Q04DX003 (ip), vehicle: saline with Tween-80
[3] = endpoint: mean survival time, dose: 200.0 mg/kg/injection, schedule: Q01DX009 (ip), vehicle: saline with Tween-80
[4] = endpoint: mean survival time, dose: 200.0 mg/kg/injection, schedule: Q04DX003 (ip), vehicle: saline with Tween-80
[5] = endpoint: mean survival time, dose: 400.0 mg/kg/injection, schedule: Q01DX009 (ip), vehicle: saline with Tween-80
[6] = endpoint: mean survival time, dose: 400.0 mg/kg/injection, schedule: Q04DX003 (ip), vehicle: saline with Tween-80
[7] = endpoint: mean survival time, dose: 12.5 mg/kg/injection, schedule: Q01DX009 (ip), vehicle: saline with Tween-80
[8] = endpoint: mean survival time, dose: 25.0 mg/kg/injection, schedule: Q01DX009 (ip), vehicle: saline with Tween-80
[9] = endpoint: mean survival time, dose: 50.0 mg/kg/injection, schedule: Q01DX009 (ip), vehicle: saline with Tween-80
[10] = endpoint: mean survival time, dose: 6.25 mg/kg/injection, schedule: Q01DX009 (ip), vehicle: saline with Tween-80
[11] = endpoint: mean survival time, dose: 100.0 mg/kg/injection, schedule: Q04DX002 (ip), vehicle: saline with Tween-80
[12] = endpoint: mean survival time, dose: 25.0 mg/kg/injection, schedule: Q04DX003 (ip), vehicle: saline
[13] = endpoint: mean survival time, dose: 12.5 mg/kg/injection, schedule: Q04DX003 (ip), vehicle: saline with Tween-80

Measured: T/C

CC1=CCCC2C1(C)CCC(C)C2(C)Cc1cc(O)ccc1O (stereo not given)
inactive: endpoint: median survival time, dose: 6.25 mg/kg/injection, schedule: Q01DX005 (ip), vehicle: Klucel (hydroxypropylcellulose) (HPC) 107 % of control | endpoint: median survival time, dose: 12.5 mg/kg/injection, schedule: Q01DX005 (ip), vehicle: Klucel (hydroxypropylcellulose) (HPC) 103 % of control | endpoint: median survival time, dose: 25.0 mg/kg/injection, schedule: Q01DX005 (ip), vehicle: Klucel (hydroxypropylcellulose) (HPC) 98 % of control | endpoint: median survival time, dose: 50.0 mg/kg/injection, schedule: Q01DX005 (ip), vehicle: Klucel (hydroxypropylcellulose) (HPC) 102 % of control | endpoint: median survival time, dose: 100.0 mg/kg/injection, schedule: Q01DX005 (ip), vehicle: Klucel (hydroxypropylcellulose) (HPC) 97 % of control

CC(=O)C1C(=O)CC(C)(O)C(C(C)=O)C1c1ccccc1 (stereo not given)
inactive: [1] 93 % of control | [2] 101 % of control | [3] 96 % of control | [4] 101 % of control | [5] 94 % of control | [6] 103 % of control

CN(C)c1ccc(Cc2cc(O)c3c(c2O)C(=O)c2ccccc2C3=O)cc1
inactive: endpoint: mean survival time, dose: 100.0 mg/kg/injection, schedule: Q01DX009 (ip), vehicle: saline sonified 93 % of control | endpoint: mean survival time, dose: 200.0 mg/kg/injection, schedule: Q01DX009 (ip), vehicle: saline sonified 100 % of control | endpoint: mean survival time, dose: 400.0 mg/kg/injection, schedule: Q01DX009 (ip), vehicle: saline sonified 96 % of control

CC(=O)N(C)N=Nc1ccc(C)cc1
inactive: endpoint: mean survival time, dose: 88.0 mg/kg/injection, schedule: Q04DX003 (ip), vehicle: other 114 % of control | endpoint: mean survival time, dose: 200.0 mg/kg/injection, schedule: Q04DX003 (ip), vehicle: other 121 % of control

O=C(Nc1ccccc1)Oc1ccc(OCc2ccccc2)cc1
inactive: [7] 94 % of control | [8] 90 % of control | [9] 92 % of control

CCOC(=O)C(C(=O)OCC)C(=O)c1cccc2c1ccc1ccccc12
inactive: endpoint: mean survival time, dose: 100.0 mg/kg/injection, schedule: Q01DX005 (ip), vehicle: saline with Tween-80 95 % of control | [1] 104 % of control | endpoint: mean survival time, dose: 200.0 mg/kg/injection, schedule: Q01DX005 (ip), vehicle: saline with Tween-80 95 % of control | [3] 93 % of control | endpoint: mean survival time, dose: 400.0 mg/kg/injection, schedule: Q01DX005 (ip), vehicle: saline with Tween-80 95 % of control | [5] 86 % of control

CCCCNCCC(SSSC(CCNCCCC)c1ccc(Cl)cc1)c1ccc(Cl)cc1 (stereo not given)
inactive: [10] 101 % of control | [7] 95 % of control | [8] 95 % of control

CCC1=C[C@H]2CN(CCc3c([nH]c4ccccc34)[C@@](C(=O)OC)(c3cc4c(cc3OC)N(C)[C@H]3[C@@](O)(C(=O)NC)[C@H](OC(C)=O)[C@]5(CC)C=CCN6CC[C@]43[C@@H]65)C2)C1
inactive: endpoint: mean survival time, dose: 0.03 mg/kg/injection, schedule: Q01DX009 (ip), vehicle: water 101 % of control | endpoint: mean survival time, dose: 0.06 mg/kg/injection, schedule: Q01DX009 (ip), vehicle: water 111 % of control

C(=C(\c1ccccc1)N1CCOCC1)/c1ccccc1
inactive: endpoint: mean survival time, dose: 100.0 mg/kg/injection, schedule: Q01DX001 (ip), vehicle: saline sonified 111 % of control | [11] 93 % of control | endpoint: mean survival time, dose: 200.0 mg/kg/injection, schedule: Q01DX001 (ip), vehicle: saline sonified 104 % of control | endpoint: mean survival time, dose: 200.0 mg/kg/injection, schedule: Q04DX002 (ip), vehicle: saline with Tween-80 96 % of control | endpoint: mean survival time, dose: 400.0 mg/kg/injection, schedule: Q01DX001 (ip), vehicle: saline sonified 102 % of control | endpoint: mean survival time, dose: 400.0 mg/kg/injection, schedule: Q04DX002 (ip), vehicle: saline with Tween-80 96 % of control

O=[N+]([O-])c1cccc(C[n+]2ccccc2C2OCCO2)c1
inactive: endpoint: mean survival time, dose: 6.25 mg/kg/injection, schedule: Q01DX009 (ip), vehicle: saline 101 % of control | endpoint: mean survival time, dose: 12.5 mg/kg/injection, schedule: Q01DX009 (ip), vehicle: saline 101 % of control | endpoint: mean survival time, dose: 12.5 mg/kg/injection, schedule: Q04DX003 (ip), vehicle: saline 104 % of control | endpoint: mean survival time, dose: 25.0 mg/kg/injection, schedule: Q01DX009 (ip), vehicle: saline 96 % of control | [12] 114 % of control

COc1cc(OC)c(NC(=O)C(=O)Nc2cc(Cl)c(OC)cc2OC)cc1Cl
inactive: [9] 88 % of control | [1] 88 % of control | [3] 91 % of control

CCCC[P+](CO)(CCCC)CCCC
inactive: endpoint: mean survival time, dose: 7.5 mg/kg/injection, schedule: Q04DX003 (ip), vehicle: saline 103 % of control | endpoint: mean survival time, dose: 15.0 mg/kg/injection, schedule: Q04DX003 (ip), vehicle: saline 98 % of control | endpoint: mean survival time, dose: 30.0 mg/kg/injection, schedule: Q04DX003 (ip), vehicle: saline 101 % of control

Nc1ccc(NC(=O)Nc2ccc(N)cc2)cc1
inactive: endpoint: mean survival time, dose: 3.0 mg/kg/injection, schedule: Q01DX009 (ip), vehicle: saline sonified 96 % of control | endpoint: mean survival time, dose: 6.0 mg/kg/injection, schedule: Q01DX009 (ip), vehicle: saline sonified 94 % of control | endpoint: mean survival time, dose: 12.0 mg/kg/injection, schedule: Q01DX009 (ip), vehicle: saline sonified 96 % of control | [13] 104 % of control

CCCCOP(=O)(N=C=S)OCCCC
inactive: endpoint: mean survival time, dose: 25.0 mg/kg/injection, schedule: Q04DX002 (ip), vehicle: saline with Tween-80 94 % of control | endpoint: mean survival time, dose: 50.0 mg/kg/injection, schedule: Q04DX002 (ip), vehicle: saline with Tween-80 102 % of control | [11] 90 % of control and 96 % of control

OCCN1CCCCCCC1
inactive: endpoint: mean survival time, dose: 75.0 mg/kg/injection, schedule: Q01DX001 (ip), vehicle: saline 95 % of control | endpoint: mean survival time, dose: 150.0 mg/kg/injection, schedule: Q01DX001 (ip), vehicle: saline 102 % of control

O=C(O)Cc1ccccc1C(=O)O
inactive: endpoint: mean survival time, dose: 100.0 mg/kg/injection, schedule: Q04DX003 (ip), vehicle: Klucel (hydroxypropylcellulose) (HPC) 96 % of control | endpoint: mean survival time, dose: 200.0 mg/kg/injection, schedule: Q04DX003 (ip), vehicle: Klucel (hydroxypropylcellulose) (HPC) 104 % of control | endpoint: mean survival time, dose: 400.0 mg/kg/injection, schedule: Q04DX003 (ip), vehicle: Klucel (hydroxypropylcellulose) (HPC) 96 % of control

Cc1ccc(S(=O)(=O)OCC(O)C(O)C(O)C(O)C=O)cc1 (stereo not given) (tested in a mixture with another compound)
inactive: [1] 103 % of control | [3] 95 % of control | [5] 112 % of control

CNc1ccc(C(=O)O)cc1OC
inactive: [2] 100 % of control | [4] 100 % of control | [6] 103 % of control

CSCS(=O)C[C@H](CO)NC(=O)/C=C/c1c(C)[nH]c(=O)[nH]c1=O (stereo not given in full)
inactive: endpoint: mean survival time, dose: 0.03 mg/kg/injection, schedule: Q01DX009 (ip), vehicle: saline 104 % of control | endpoint: mean survival time, dose: 0.06 mg/kg/injection, schedule: Q01DX009 (ip), vehicle: saline 103 % of control | endpoint: mean survival time, dose: 0.08 mg/kg/injection, schedule: Q01DX009 (ip), vehicle: water 105 % of control and 110 % of control | endpoint: mean survival time, dose: 0.13 mg/kg/injection, schedule: Q01DX009 (ip), vehicle: saline 101 % of control | endpoint: mean survival time, dose: 0.13 mg/kg/injection, schedule: Q01DX010 (ip), vehicle: saline 102 % of control and 111 % of control | endpoint: mean survival time, dose: 0.15 mg/kg/injection, schedule: Q01DX009 (ip), vehicle: water 115 % of control and 110 % of control | endpoint: mean survival time, dose: 0.25 mg/kg/injection, schedule: Q01DX009 (ip), vehicle: saline 115 % of control | endpoint: mean survival time, dose: 0.25 mg/kg/injection, schedule: Q01DX010 (ip), vehicle: saline 113 % of control and 114 % of control | endpoint: mean survival time, dose: 0.3 mg/kg/injection, schedule: Q01DX009 (ip), vehicle: water 116 % of control | endpoint: mean survival time, dose: 0.5 mg/kg/injection, schedule: Q01DX009 (ip), vehicle: saline 114 % of control | endpoint: mean survival time, dose: 0.5 mg/kg/injection, schedule: Q01DX010 (ip), vehicle: saline 119 % of control and 112 % of control | endpoint: mean survival time, dose: 0.6 mg/kg/injection, schedule: Q01DX009 (ip), vehicle: water 101 % of control | endpoint: mean survival time, dose: 1.0 mg/kg/injection, schedule: Q01DX010 (ip), vehicle: saline 108 % of control

C[n+]1c(/C=C\c2ccc(Cl)cc2)ccc2ccccc21
inactive: endpoint: mean survival time, dose: 3.13 mg/kg/injection, schedule: Q01DX009 (ip), vehicle: saline with Tween-80 96 % of control | [10] 98 % of control | endpoint: mean survival time, dose: 6.25 mg/kg/injection, schedule: Q04DX003 (ip), vehicle: saline with Tween-80 98 % of control | [13] 90 % of control

CN(C)CCCn1c2ccccc2c2cnccc21
inactive: [12] 98 % of control | endpoint: mean survival time, dose: 50.0 mg/kg/injection, schedule: Q04DX003 (ip), vehicle: saline 110 % of control | endpoint: mean survival time, dose: 100.0 mg/kg/injection, schedule: Q04DX003 (ip), vehicle: saline 113 % of control
